Experimental data taken from PMC11984388, “A brain-accessible peptide modulates stroke inflammatory response and neurotoxicity by targeting BDNF-receptor TrkB-T1 specific interactome” (Theranostics, 2025).

How the values were obtained:
[1] = tested on: neurons of primary cortical cultures; experiment: Neuronal viability (MTT) in non-stimulated cultures; assay type: cell-based, rat
Procedure: Cultures were prepared from cerebral cortex of 18-day-old Wistar rat embryos, both genders indistinctly included. Unless otherwise indicated, glial growth was inhibited after 7 days in vitro (DIVs), experimental treatments taking place after 12 DIVs. These cultures present a high percentage of neurons, combined with glial cells, mostly astrocytes. To induce excitotoxicity, cultures were incubated with NMDA (100 µM) and its co-agonist glycine (10 µM), herein denoted simply as NMDA, which induce a strong excitotoxic response in mature neurons but have no effect on astrocyte viability,[47]. When indicated, cultures were preincubated for 30 min with indicated concentrations of Tat-derived CPPs before NMDA treatment, peptides being kept in the medium along treatment. Total cell or neuronal viability assessment was established by the thiazolyl blue formazan (MTT) reduction assay. Further details are provided as Supplementary material. […]
skull for 10 min. Br ain injury encompas se s damage to vas cular endothelium, platelet activation, and subs equent microvascula r thrombotic occlus ion of the irradiate d region. The ar eas underneath this ste reotaxic position that result irradiate d ar e the prima ry motor cortex and the prima ry soma tos ens ory cortex (hindlimb and forelimb). Once completed surgery, the incision was sutured, and mice were allowed to recover. […]

[2] = tested on: Iba1; experiment: Immunohistochemistry of microglia in ischemic brain; assay type: in vivo; conditions: male mice, 3 nmol/g, 24 h of insult; versus TMyc
Procedure: The brains of animals injected one hour af ter the initiation of the photothrombotic damage with vehicle (saline), TMyc or TT1Ct (3 nmol/g) were process ed and cryoprote cted as before indicated. The duration of damage before sa cri f i ce was 5 h (male and female) or 24 h (male).
Coronal froze n se ctions were incubated with blocking solution as des cribe d in flota tion for 1 h at room temperature and then overnight with prima ry antibodies diluted in 4% goat se rum and 0.3% Triton X-100 in PBS at 4°C. After was hing, slides were incubated 1 h with Alexa Fluor 546- conjugated goat anti-rabbit or AlexaFluor 647- conjugated goat anti-mouse se condary antibodies to visua liz e the prima ry antibodies and DAPI (5 μg/ml). Only for Iba1 sta ining, blocking solution was 2.5% BS A, 5% goat se rum, 0.5% Triton X-100 in PBS, and se ctions were incubated with prima ry antibody 24 h at RT follow ed by was hing and Alexa Fluor 546-conjugated goat anti-rabbit and DAPI incubation for 1 h. Sections were then was hed in PBS, mounted on slides , dried for 15 min at 37 °C on a hot plate, or air dried overnight and then cover slipped with DPX or Prolong Diamond. Ce ll Obs erve d images were obtained with Zeiss microscope Observe r.Z1 using a 10x Plan-Apochromatic objective. […]

[3] = Beam walking test after photothrombotic ischemia; assay type: in vivo, mice; conditions: male mice

## Ac-YGRKKRRQRRRPPFVLFHKIPLDG-NH2 [TT1Ct]
[1]; concentrations lower than 25 µM
  Intrinsic toxicity: not intrinsically toxic
[1]; higher dose employed (25 µM)
  Toxicity for non-stimulated cultures: toxic
[2]
  Effect on Iba1 in reactive microglia: limited Iba1 upregulation
[3]; TT1Ct versus TMyc slips
  Recovery in beam walking test: 49%
[3]; contralateral hind paw slips, beam walking 24 h after insult, 3 nmol/g i.v. 1 h after damage, mean ± SEM, n = 10-12
  Number of slips: 5 ± 1
